Assays:
A-375 [1] = experiment: Induction of cell cycle arrest in human A-375 cells assessed as accumulation at S phase at 5 uM incubated for 24 hrs by PI staining based flow cytometry analysis (reference value: 24.01 %); type: functional
[2] = Stability of the compound assessed as Carboxylesterase (unknown origin) mediated compound hydrolysis measured upto 150 mins by RP-HPLC-UV analysis; type: ADME; conditions: human, 2.5 h
HEK-293T = experiment: Induction of mitochondrial membrane hyperpolarization in HEK293T cells assessed as JC-1 level at 2.5 to 10 uM incubated for 4 hrs by JC-1 staining based flow cytometry analysis relative to control; type: functional, Homo sapiens; conditions: dose 2.5-10 µM
A-375 [3] = experiment: Induction of apoptosis in human A-375 cells assessed as apoptotic cells at 2.5 uM measured after 48 hrs by Annexin V FITC/PI staining based flow cytometry analysis relative to control; type: functional
[4] = Drug uptake in human A-375 cells measured at 10 mins by RP-HPLC-UV analysis; type: ADME, cell-based; conditions: a-375, 10 min

## O=C(CCCCCCCCC[P+](c1ccc(C(F)(F)F)cc1)(c1ccc(C(F)(F)F)cc1)c1ccc(C(F)(F)F)cc1)NC(COC(=O)CCCc1ccccc1)(COC(=O)CCCc1ccccc1)COC(=O)CCCc1ccccc1.[Br-]
A-375 [1]
  Activity: 15.46%
[2]
  Stability: Unstable
HEK-293T
  Activity: 18.91%
A-375 [3]
  Activity: 6%
[4]
  Drug uptake: Active
